Experiments:
[1] = biological target: T1, HRas^G12V (Homo sapiens (Human), UniProt P01112, G12V); test: 19F DLB (ligand-observed 19F NMR) score; assay type: binding; set-up: scale not given here
Procedure, shortened: (§1)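 In the T2-CPMG experiment, echo spacing was 1 ms and total delays ranged over eight values from 1 to 800 ms. Both scores come from 600 MHz NMR of 50 μM HRas G12V mixed with fragment pools at 240 μM each, in phosphate buffer pH 7.4 with NaCl, MgCl2 and TCEP-d16. Ligand-observed 19F spectra were recorded with 1H decoupling, 64 scans and a 5 s relaxation delay.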

[2] = biological target: T1, HRas^G12V; test: 19F T2-CPMG NMR score; assay type: binding
Procedure, shortened: as §1

[3] = biological target: T1, HRas^G12V; test: Overall binding/activity in the various assays (NMR consensus binding)
Procedure: Since the fragment library was curated using phosphate buffer, 25 mM sodium phosphate pH 7.4, 150 mM NaCl, 5 mM MgCl2, 1 mM TCEP-d16, 10% D2O Fresh TCEP was used for experiments. Screening was performed using ^1H-decoupled 1D ^19F experiment Bruker experiment (zgfhigqn.2) with 64 scans and a relaxation delay of 5 seconds. 50 μM HRas^G12V and 240 μM of each fragment in pools (mixtures) were used.
Hit confirmation was performed using the same ^19F experiment as the screen. Ligand-observed 1D ^1H, protein-observed 1D ^1H, ^1H T2-CPMG as well as Saturation Transfer Difference (STD) experiments were also run on the same samples. Ligand-observed 1D ^1H was run using the standard Bruker sequence with excitation sculpting (zgesgp) with a relaxation delay of 10 seconds and 16 scans per spectrum. Protein-observed 1D ^1H was performed using the same sequence with a relaxation delay of 1 second and 256 scans in order to increase the signal-to-noise of the protein resonances, while keeping the experimental time relatively short. The ^1H T2-CPMG experiment employed a modified version of the Bruker 1D ^1H zgesgp experiment with the addition of a CPMG pulse train after the first 90° excitation pulse. Total duration for each spin echo was fixed at 1 ms (τ=500 μs), while the number of echoes in the pulse train was varied according to the total time (T). The number of scans for each spectrum was 4 and eight delay times were run on each sample, ranging from 1 ms to 800 ms.
STD experiments consisted of two independent spectra with offsets of 0 ppm (on resonance) and −20 ppm (off resonance). […] 160 scans were acquired for each spectrum.
The results obtained with the compounds in the various assays described above are depicted in Table 21.
Because of its power to probe the intrinsically weak interactions (Kd) between targets and low-molecular weight fragments, NMR fragment-based lead discovery (FBLD) is a very useful biophysical method in early stage drug discovery, especially for challenging target proteins; including those with shallow binding pockets. Since FBLD screens are performed using low-molecular weight compounds (fragments) with lower structural complexity, the same chemical space can be covered using a smaller number of drug-like fragments versus use of large libraries of higher-molecular weight lead-like compounds as in high throughput screening (HTS) campaigns. Therefore, FBLD has a much higher hit rate than HTS using only several hundred to several thousand compounds in comparison with approximately 1 million compounds for HTS. Also, the small size of the compounds screened in FBLD means a better chance to fully match the interactions with small or transient pockets within the target protein, where these less tractable pockets cannot be accessed with standard classical HTS methods. […] We expect this methodology to be more advantageous than classical HTS methods for expediting the time from hit to lead (H2L) and allows for rapid access to high quality leads with lower attrition rates in subsequent lead optimization (LO) campaigns toward pre-clinical candidate selection. FBLD screening by NMR involves a “consensus binding” approach where several distinct NMR experiments (DLB, STD, CPMG) are applied along with a free-state aggregation detection method (T2-CPMG) to rank the compounds for their affinity to the receptor (HRAS in this case) whilst simultaneously monitoring the solution behavior and critical quality attributes of each compound. The latter helps to eliminate artifact binders which are highly problematic. We performed a fluorine screen involving 461 compounds that were derived from a highly curated fragment library. Moreover, two-dimensional ^15N HSQC NMR was also used to validate ligand-binding sites on the target protein. In addition, we employed protein-detected biophysical measurements were employed to determine fragment binding affinities to the target protein (Kd) by HSQC NMR. […]

T1 sequence (P01112 1-166 G12V): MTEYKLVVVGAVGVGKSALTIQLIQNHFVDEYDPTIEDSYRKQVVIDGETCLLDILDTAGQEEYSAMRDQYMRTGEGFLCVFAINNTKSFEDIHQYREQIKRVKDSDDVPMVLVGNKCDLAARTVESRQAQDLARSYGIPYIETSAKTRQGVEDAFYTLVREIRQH

| Structure (SMILES) | 19F DLB Score [1] | 19F T2-CPMG Score [2] | Binding to HRas^G12V (in words) [3] |
| --- | --- | --- | --- |
| CC(=O)N1CCC[C@@H]1C(=O)NCCc1c[nH]c2cc(F)ccc12 [Compound 10044] | 1.07 | 0.95 | low or no binding |
| CC(=O)N1CCC[C@H]1C(=O)NCCc1c[nH]c2cc(F)ccc12 [Compound 10045] | 1.1 | 1.13 | low or no binding |
| O=S(=O)(NCCc1c[nH]c2cc(F)ccc12)c1ccc(F)cc1 [Compound 10046] | 1.02 | 0.79 | low or no binding |
| Fc1ccc2c(CCNCCc3c[nH]c4cc(F)ccc34)c[nH]c2c1 [Compound 10047, Bis(2-(6-fluoro-1H-indol-3-yl)ethyl)amine] | 1.19 | 3.38 | low or no binding |
| CC(C)(C(=O)N1CCC1)c1c[nH]c2cc(F)ccc12 [Compound 10049, 1-(azetidin-1-yl)-2-(6-fluoro-1H-indol-3-yl)-2-methylpropan-1-one] | 1.43 | 3.53 | low or no binding |
| O=C(NCCc1c[nH]c2cc(F)ccc12)C1CCOC1 (stereo not drawn) [Compound 10063] | 1.1 | 2.82 | low or no binding |
| CCN(CC)CC(=O)NCCc1c[nH]c2cc(F)ccc12 [Compound 10064] | 1.16 | 1.74 | low or no binding |
| O=C(Cc1c[nH]c2ccccc12)Nc1ccc(F)cc1 [Compound 10067] | 1.2 | 2.15 | low or no binding |
| O=C(Cc1c[nH]c2cc(F)ccc12)N[C@H]1CCOC1 [Compound 10070] | 1.46 | 5.56 | low or no binding |
| O=C(Cc1c[nH]c2cc(F)ccc12)N[C@@H]1CCOC1 [Compound 10071] | 1.35 | 4.49 | low or no binding |
| Cc1[nH]c2cc(F)ccc2c1CC(=O)N1CCC1 [Compound 10077, 1-(azetidin-1-yl)-2-(6-fluoro-2-methyl-1H-indol-3-yl)ethan-1-one] | 0.96 | 0.41 | low or no binding |
| CS(=O)(=O)NCCC(=O)NCCc1c[nH]c2cc(F)ccc12 [Compound 10082, N-(2-(6-fluoro-1H-indol-3-yl)ethyl)-3-(methylsulfonamido)propanamide] | 1.22 | 2.61 | low or no binding |
| O=C(O)C1CN(C(=O)Cc2c[nH]c3cc(F)ccc23)C1 [Compound 10113, 1-(2-(6-fluoro-1H-indol-3-yl)acetyl) azetidine-3-carboxylic acid] | 1.29 | 2.55 | low or no binding |

The remaining lines, values ahead:

| 19F DLB Score [1] | 19F T2-CPMG Score [2] | Binding to HRas^G12V (in words) [3] | Structure (SMILES) |
| --- | --- | --- | --- |
| 1.22 | 2.95 | low or no binding | CCOC(=O)CNC(=O)Cc1c[nH]c2cc(F)ccc12 [Compound 10050] |
| 1.07 | 1.59 | low or no binding | CC(C)(CNC(=O)Cc1c[nH]c2cc(F)ccc12)C(=O)O [Compound 10062] |
| 1.17 | 2.3 | low or no binding | CC(=O)N1CCC[C@H](NC(=O)Cc2c[nH]c3cc(F)ccc23)C1 [Compound 10073, (S)—N-(1-acetylpiperidin-3-yl)-2-(6-fluoro-1H-indol-3-yl)acetamide] |
| 1.23 | 3.48 | low or no binding | CC(=O)N1CCC[C@@H](NC(=O)Cc2c[nH]c3cc(F)ccc23)C1 [Compound 10074] |
| 1.23 | 2.25 | low or no binding | CCOC(=O)[C@@H](NC(=O)Cc1c[nH]c2cc(F)ccc12)C(C)C [Compound 10079, Ethyl (2-(6-fluoro-1H-indol-3-yl)acetyl)valinate] |
| 2.67 | −1.66 | low or no binding | COCC(=O)Nc1cccc(NC(=O)Cc2c[nH]c3cc(F)ccc23)c1 [Compound 10080, 2-(6-fluoro-1H-indol-3-yl)-N-(3-(2-methoxyacetamido)phenyl)acetamide] |
| 1.14 | 2.8 | low or no binding | C[C@@H](NC(=O)Cc1c[nH]c2cc(F)ccc12)C(=O)O [Compound 10083] |
| 1.09 | 1.7 | low or no binding | C[C@H](NC(=O)Cc1c[nH]c2cc(F)ccc12)C(=O)O [Compound 10084] |
| 1.46 | 7.82 | low or no binding | CC(=O)N1CC[C@@H](NC(=O)Cc2c[nH]c3cc(F)ccc23)C1 [Compound 10092, (R)—N-(1-acetylpyrrolidin-3-yl)-2-(6-fluoro-1H-indol-3-yl) acetamide] |
| 1.35 | 4.89 | low or no binding | CCOC(=O)C(CC(C)C)NC(=O)Cc1c[nH]c2cc(F)ccc12 (stereo not drawn) [Compound 10093] |
| 1.14 | 2.11 | low or no binding | CCOC(=O)C(Cc1ccccc1)NC(=O)Cc1c[nH]c2cc(F)ccc12 (stereo not drawn) [Compound 10096] |
| 1.38 | 5.94 | low or no binding | CCOC(=O)C(Cc1ccc(O)cc1)NC(=O)Cc1c[nH]c2cc(F)ccc12 (stereo not drawn) [Compound 10098] |
| 1.12 | 1.74 | low or no binding | CCOC(=O)C(CC(N)=O)NC(=O)Cc1c[nH]c2cc(F)ccc12 (stereo not drawn) [Compound 10101] |
| 1.06 | 2.65 | low or no binding | O=C(O)C1CCN1C(=O)Cc1c[nH]c2cc(F)ccc12 (stereo not drawn) [Compound 10102, 1-(2-(6-fluoro-1H-indol-3-yl)acetyl) azetidine-2-carboxylic acid] |
| 1.14 | 2.49 | low or no binding | CCOC(=O)C(Cc1c[nH]cn1)NC(=O)Cc1c[nH]c2cc(F)ccc12 (stereo not drawn) [Compound 10104] |
| 1.2 | 2.44 | low or no binding | CCOC(=O)C(CO)NC(=O)Cc1c[nH]c2cc(F)ccc12 (stereo not drawn) [Compound 10105] |
| 1.34 | 5.72 | low or no binding | O=C(O)CN1CCC(NC(=O)Cc2c[nH]c3cc(F)ccc23)CC1 [Compound 10108, 2-(4-(2-(6-fluoro-1H-indol-3-yl)acetamido)piperidin-1-yl)acetic acid] |
| 1.15 | 2.67 | low or no binding | CN1CCC(NC(=O)Cc2c[nH]c3cc(F)ccc23)C(C(=O)O)C1 (stereo not drawn) [Compound 10118, 4-(2-(6-fluoro-1H-indol-3-yl)acetamido)-1-methylpiperidine-3-carboxylic acid] |

Reference: US20240408064A1, “RAS INHIBITORS, COMPOSITIONS AND METHODS OF USE THEREOF” (GENETOLEAD INC., priority 2021, published 2024)
